From paper PMC11280411, “Phytochemical Investigation of Carex praecox Schreb. and ACE-Inhibitory Activity of Oligomer Stilbenes of the Plant” (Molecules, 2024)
Where two headings read alike, the source gives them in different places.

What was measured:
Colo 205 = experiment: Antiproliferative MTT assay; assay type: cell-based, human; settings: doxorubicin-sensitive cells; for IC50: read-out: IC50 (μM) ± SD, Colo 205
ACE from rabbit lung = target: T1, ACE from rabbit lung (Oryctolagus cuniculus, UniProt P12822); experiment: ACE-inhibitory assay (ACE Activity Assay Kit, fluorescence); assay type: biochemical; settings: for inhibition at 90 µM: read-out: Inhibition at 90 μM (%) ± SD
T1 construct: ACE from rabbit lung, A6778, Sigma-Aldrich, USA; purchased Sigma-Aldrich A6778; host or cells: rabbit lung (tissue-derived)
T1 sequence (P12822 34-1310): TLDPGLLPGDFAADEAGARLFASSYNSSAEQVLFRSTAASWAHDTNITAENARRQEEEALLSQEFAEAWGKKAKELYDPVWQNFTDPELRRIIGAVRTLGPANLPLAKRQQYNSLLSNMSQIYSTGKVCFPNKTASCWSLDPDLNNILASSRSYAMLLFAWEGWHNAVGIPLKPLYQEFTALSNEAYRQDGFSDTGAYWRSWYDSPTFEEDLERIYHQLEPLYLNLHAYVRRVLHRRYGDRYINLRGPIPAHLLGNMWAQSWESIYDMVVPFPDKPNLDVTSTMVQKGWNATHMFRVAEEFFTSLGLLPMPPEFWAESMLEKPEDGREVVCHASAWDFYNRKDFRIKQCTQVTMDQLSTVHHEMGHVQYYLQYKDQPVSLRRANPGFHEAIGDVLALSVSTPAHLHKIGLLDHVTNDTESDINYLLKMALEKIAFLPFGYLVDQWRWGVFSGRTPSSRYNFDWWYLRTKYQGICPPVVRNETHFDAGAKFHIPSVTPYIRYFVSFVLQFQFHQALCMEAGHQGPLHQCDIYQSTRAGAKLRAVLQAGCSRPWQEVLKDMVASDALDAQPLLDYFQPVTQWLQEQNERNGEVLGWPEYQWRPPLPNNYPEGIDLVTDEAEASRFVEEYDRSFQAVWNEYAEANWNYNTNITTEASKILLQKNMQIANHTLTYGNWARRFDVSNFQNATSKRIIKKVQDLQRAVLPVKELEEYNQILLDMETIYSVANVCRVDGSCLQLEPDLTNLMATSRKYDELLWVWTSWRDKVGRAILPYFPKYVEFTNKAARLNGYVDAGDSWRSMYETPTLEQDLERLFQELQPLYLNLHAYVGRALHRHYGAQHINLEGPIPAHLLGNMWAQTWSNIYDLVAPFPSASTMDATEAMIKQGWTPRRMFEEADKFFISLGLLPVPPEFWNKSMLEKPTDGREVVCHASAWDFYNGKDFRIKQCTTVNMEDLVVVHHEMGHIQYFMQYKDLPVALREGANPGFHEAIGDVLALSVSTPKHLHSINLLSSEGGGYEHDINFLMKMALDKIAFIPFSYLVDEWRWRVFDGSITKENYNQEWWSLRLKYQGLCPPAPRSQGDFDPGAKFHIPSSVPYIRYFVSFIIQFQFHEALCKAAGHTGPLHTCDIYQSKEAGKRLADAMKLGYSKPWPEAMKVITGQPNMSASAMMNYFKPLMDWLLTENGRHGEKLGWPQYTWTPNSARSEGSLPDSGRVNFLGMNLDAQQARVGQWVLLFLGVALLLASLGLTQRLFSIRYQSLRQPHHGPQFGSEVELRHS

HIV transcription = system: HIV transcription; design: method as in PMID 36975214; settings: T cells; cited from earlier work
[1] = target: T2, C-domain of rabbit lung ACE (Oryctolagus cuniculus, UniProt P12822); experiment: ACE domain-specific inhibition, C-domain (FRET substrate Abz-LFK(Dnp)-OH); assay type: biochemical; settings: for Inhibition (%) ± SD, C-Domain: Abz-LFK(Dnp)-OH [S] = 21 μM
T2 construct: on the C- and N-domain of a rabbit lung ACE using the FRET substrates; from tissue; host or cells: rabbit lung
T2 sequence (P12822 34-1310): T1 sequence (P12822 34-1310)
Experimental: (§1) ACE domain-specific inhibition studies were performed based on previously reported methods (Carmona et al., 2006 [57]; Lunow et al., 2015 [58]). Fluorescence resonance energy transfer (FRET) substrates, Abz-SDK(Dnp)P-OH and Abz-LFK(Dnp)-OH were used for the N-domain and C-domain, respectively. […] Briefly, 40 μL of assay buffer and 60 μL of the FRET substrate solutions were preincubated for 10 min at 37 °C, with the reaction started by adding 20 μL of diluted ACE solution (5 μL ACE + 15 μL 0.1 mol/L TRIS buffer) and fluorescence measured at λex/λem = 290/450 nm every minute at 37 °C for 30 min. The corresponding KM of the FRET substrates, determined using the Michaelis–Menten equation, was used as the substrate concentration of the FRET substrates used in percent inhibition studies. The inhibitory activity of 16 on both domains was determined as described above with the 40 μL solution containing the inhibitor (inhibitor in DMSO–Assay buffer, 1:9). The control samples, which correspond to 100% enzyme activity, were prepared by replacing the inhibitor solution with TRIS buffer. Dose–effect studies on 16 using the FRET substrates were used to determine the IC50 of this compound on both ACE domains. All experiments were performed in triplicates. The ACE-inhibitory activity was calculated using the following equation:(%) = (Ab − Aa) − (Cb − Ca)/(Ab − Aa) × 100(2) where Aa is the absorbance of control wells at 0 min; Ab is the absorbance of control wells at 15 min; Ca is the absorbance of the inhibitor wells at 0 min; and Cb is the absorbance of inhibitor wells at 15 min.

[2] = system: Colo 320/MDR-LRP expressing ABCB1; experiment: Antiproliferative MTT assay; settings: for IC50: Homo sapiens, COLO 320, 72 h, read-out: IC50 (μM) ± SD, Colo 320
[3] = target: T3, N-domain of rabbit lung ACE (Oryctolagus cuniculus, UniProt P12822); experiment: ACE domain-specific inhibition, N-domain (FRET substrate Abz-SDK(Dnp)P-OH); assay type: biochemical; settings: for Inhibition (%) ± SD, N-Domain: Abz-SDK(Dnp)P-OH [S] = 72 μM
T3 construct: on the C- and N-domain of a rabbit lung ACE using the FRET substrates; from tissue; host or cells: rabbit lung
T3 sequence (P12822 34-1310): T1 sequence (P12822 34-1310)
Experimental: as §1

[4] = system: Colo 320/MDR-LRP expressing ABCB1
velvetleaf seeds = system: velvetleaf seeds; design: method as in doi:10.1007/BF02266955; settings: cited from earlier work

**Q.** For Oc1ccc(C2Oc3cc(O)cc4c3C2c2cc(O)cc(O)c2C(c2ccc(O)cc2)C4C2c3cc(O)cc4c3C(c3cc(O)cc(O)c3C2c2ccc(O)cc2)C(c2ccc(O)cc2)O4)cc1 (single isomer, unassigned; (-)) [Compound 16, (–)-hopeaphenol], which “IC50 (μM) ± SD, Colo 205” value (Colo 205; 72 h) is on record?
**A.** The value was “notable antiproliferative activity”.

**Q.** What about the IC50 (Colo 205; Homo sapiens, COLO 205, 72 h) of the same compound?
**A.** The IC50 was 1.59 ± 0.11 µM.

**Q.** And the IC50 (ACE from rabbit lung; ACE from rabbit lung)?
**A.** The IC50 was 7.7 ± 0.9 µM.

**Q.** And the inhibition at 90 µM (ACE from rabbit lung; ACE from rabbit lung, 90 μM)?
**A.** Its inhibition at 90 µM is 103 ± 1.5%.

**Q.** What about the “type of ACE inhibition (enzyme-kinetic studies)” value (ACE from rabbit lung; Lineweaver-Burk, substrate Abz-Gly-Phe(NO2)-Pro) of the same compound?
**A.** Its value is “mixed-type inhibition”.

**Q.** What about the “inhibition of HIV transcription” value (HIV transcription) of the same compound?
**A.** Its value is “selective inhibitor of HIV transcription”.

**Q.** What about the “times lower affinity for the C-domain than for the N-domain” value ([1]; C-domain versus N-domain IC50) of the same compound?
**A.** The value was 10 times.

**Q.** What about the “Inhibition (%) ± SD, C-Domain” value ([1]; inhibitor 10 μM) of the same compound?
**A.** The value was 18.17 ± 0.5%.

**Q.** And the “Inhibition (%) ± SD, C-Domain” value ([1]; inhibitor 50 μM)?
**A.** Its value is 23.39 ± 0.6%.

**Q.** What about the IC50 ([1]; rabbit lung ACE, FRET substrate Abz-LFK(Dnp)-OH) of the same compound?
**A.** The IC50 was greater than 300 µM.

**Q.** And the IC50 [2]?
**A.** Its IC50 is 6.08 ± 0.24 µM.

**Q.** What about the “IC50 (μM) ± SD, Colo 320” value ([2]; MTT, 72 h, doxorubicin-resistant cells expressing ABCB1) of the same compound?
**A.** Its value is “notable antiproliferative activity”.

**Q.** And the “Inhibition (%) ± SD, N-Domain” value ([3]; inhibitor 10 μM)?
**A.** Its value is 42.41 ± 0.8%.

**Q.** And the “Inhibition (%) ± SD, N-Domain” value ([3]; inhibitor 50 μM)?
**A.** The value was 55.74 ± 3.2%.

**Q.** And the IC50 ([3]; rabbit lung ACE, FRET substrate Abz-SDK(Dnp)P-OH)?
**A.** The IC50 was 35.7 ± 2.3 µM.

**Q.** Which IC50 (Colo 205; 72 h) does the source give for N.N.[Cl][Pt][Cl] [Cisplatin, reference compound] here?
**A.** The IC50 was 53.9 ± 3.92 µM.

**Q.** Which results are given for COc1cccc2c1C(=O)c1c(O)c3c(c(O)c1C2=O)C[C@@](O)(C(=O)CO)C[C@@H]3O[C@H]1C[C@H](N)[C@H](O)[C@H](C)O1 [Doxorubicin, reference compound]?
**A.** IC50 (Colo 205; Homo sapiens, COLO 205, 72 h): 0.33 ± 0.03 µM; IC50 [2]: 0.67 ± 0.06 µM

**Q.** Which results are given for Oc1ccc(/C=C\c2cc(O)cc3c2[C@H](c2cc(O)cc4c2[C@H](c2cc(O)cc(O)c2)[C@@H](c2ccc(O)cc2)O4)[C@@H](c2ccc(O)cc2)O3)cc1 [Compound 15, Z-miyabenol C]?
**A.** IC50 (Colo 205; Homo sapiens, COLO 205, 72 h): > 100 µM; IC50 (ACE from rabbit lung; ACE from rabbit lung): 15.2 ± 0.4 µM; inhibition at 90 µM (ACE from rabbit lung; ACE from rabbit lung, 90 μM): 96.7 ± 6.3%; IC50 [2]: > 100 µM

**Q.** What does the source list for Oc1ccc(/C=C\c2cc(O)cc3c2C(c2cc(O)cc(O)c2)C(c2ccc(O)cc2)O3)cc1 (stereo not drawn) [Compound 13, cis-ε-viniferin]?
**A.** IC50 (Colo 205; Homo sapiens, COLO 205, 72 h): > 100 µM; IC50 (ACE from rabbit lung; ACE from rabbit lung): 18 ± 1.2 µM; inhibition at 90 µM (ACE from rabbit lung): 95.5 ± 2.8%; IC50 [2]: > 100 µM

**Q.** Which results are given for kobophenol A [Compound 17]?
**A.** IC50 (Colo 205; 72 h): > 100 µM; IC50 (ACE from rabbit lung; ACE from rabbit lung): 14.8 ± 0.8 µM; Inhibition at 90 μM (%) ± SD (ACE from rabbit lung; ACE from rabbit lung, 90 μM): 98.5 ± 1.2%; IC50 [4]: > 100 µM

**Q.** Which inhibition of germination (velvetleaf seeds) does the source give for O=c1ccoc2cc(O)cc(O)c12 [Compound 22, 5,7-dihydroxychromone] here?
**A.** The inhibition of germination was “inhibited the germination of velvetleaf seeds”.

**Q.** With “bradykinin-potentiating peptide b [BPPb, reference compound]” as the compound, how does the “Inhibition (%) ± SD, C-Domain” value ([1]; inhibitor 200 nM) read?
**A.** Its value is 83.20 ± 3.6%.

**Q.** And the “Inhibition (%) ± SD, N-Domain” value ([3]; inhibitor 200 nM)?
**A.** The value was 5.2 ± 0.2%.

**Q.** With Oc1ccc(/C=C/c2cc(O)cc3c2C(c2cc(O)cc(O)c2)C(c2ccc(O)cc2)O3)cc1 (stereo not drawn) [Compound 14, trans-ε-viniferin] as the compound, how does the IC50 (Colo 205; Homo sapiens, COLO 205, 72 h) read?
**A.** Its IC50 is greater than 100 µM.

**Q.** What about the IC50 (ACE from rabbit lung; ACE from rabbit lung) of the same compound?
**A.** The IC50 was 14 ± 0.7 µM.

**Q.** What about the inhibition at 90 µM (ACE from rabbit lung) of the same compound?
**A.** Its inhibition at 90 µM is 107 ± 1.1%.

**Q.** What about the IC50 [2] of the same compound?
**A.** The IC50 was greater than 100 µM.

**Q.** Which “IC50 (μM) ± SD, Colo 205” value (Colo 205; 72 h) does the source give for Oc1ccc(/C=C/c2cc(O)cc(O)c2)cc1 [Compound 12, trans-resveratrol] here?
**A.** Its value is “notable antiproliferative activity”.

**Q.** What about the IC50 (Colo 205; Homo sapiens, COLO 205, 72 h) of the same compound?
**A.** Its IC50 is 48.3 ± 1.54 µM.

**Q.** What about the “IC50 (μM) ± SD, Colo 320” value [4] of the same compound?
**A.** Its value is “notable antiproliferative activity”.

**Q.** And the IC50 [2]?
**A.** Its IC50 is 40.4 ± 1.84 µM.
